The experiment has as its system RBL-2H3 cells. Description: IgE-induced Beta-hexosaminidase secretion in RBL-2H3 cells. Format: cell-based. The following applies: Rattus norvegicus; RBL-2H3 cells sensitized with SPE-7, stimulated with DNP-BSA. As to the method:
For the determination of IgE-induced Beta-hexosaminidase secretion, RBL-2H3 cells (SIBS) are seeded in 96 well plates at 4×10^4 cells per well and incubated in MEM media with 15% FBS and Glutamine ([…]) for 4 hours and sensitized with 0.5 ug/ml of SPE-7 overnight. Cells are washed 3 times with Tyrode's buffer and incubated in the presence or absence of various concentrations of the testing compound for 20 min at 37° C., 5% CO2. Cells are stimulated by adding 10 μL of DNP-BSA solution (150 ng/mL) to each well and incubating for 45 minutes at 37° C., 5% CO2. Then, 45 μL of the supernatant is taken and incubated with 100 μL of 1 mM 4-Nitrophenyl N-acetyl-β-D-glucosaminide (Sigma, Cat. No. N9376), which is diluted in 0.05 M citrate buffer (pH 4.5), for 1.5 hr at 37° C. The reactions are quenched by adding 185 μL of 0.05 M sodium carbonate buffer (pH 10.0). Plates are read at 405 nm on Multiskan (MK 3).
By IC50 is commonly meant the concentration that inhibits the measured activity by half. For the molecule `CC(=O)N1CCO[C@H](COc2nc(-c3ccc(N4CCOCC4)cc3)cc3nccnc23)C1` [Compound 24], the IC50 is 100 to 1000 nM. With `CS(=O)(=O)N1CCC(c2ccc(-c3cc4nccnc4c(O[C@@H]4CCOC4)n3)cc2)CC1` [Compound 124] the figure was 1 to 100 nM; with `CCN(CC)c1ccc(-c2cc3nccnc3c(OC[C@@H]3CN(S(C)(=O)=O)CCO3)n2)cc1` [Compound 119], 1 to 100 nM; with `NS(=O)(=O)N1CCO[C@H](COc2nc(-c3ccc(N4CCCC4)cc3)cc3nccnc23)C1` [Compound 30], 100 to 1000 nM. As to `CS(=O)(=O)N1CCO[C@H](COc2nc(-c3ccc(N4CCC(F)(F)CC4)cc3)cc3nccnc23)C1` [Compound 20], the IC50 was in the range of 1 to 100 nM. For the molecule `Cn1ccc2cc(-c3cc4nccnc4c(OC[C@@H]4CN(S(C)(=O)=O)CCO4)n3)ccc21` [Compound 39], the half-inhibitory concentration (IC50) fell in the range of 1 to 100 nM. Under `CN(C)c1ccc(-c2cc3nccnc3c(OC[C@@H]3CN(C(=O)C4CC(F)(F)C4)CCO3)n2)cc1` [Compound 71] stands 100 to 1000 nM; under `CC(=O)N1CCO[C@H](COc2nc(-c3ccc(N4CCN(CCO)CC4)cc3)cc3nccnc23)C1` [Compound 49], 100 to 1000 nM; under `CN(C)c1ccc(-c2cc3nccnc3c(OC[C@@H]3CN(S(=O)(=O)CCN4CC[C@H](O)C4)CCO3)n2)cc1` [Compound 103], 100 to 1000 nM. Regarding `CN(C)c1ccc(-c2cc3nccnc3c(OC[C@@H]3CN(C(=O)Cc4c[nH]cn4)CCO3)n2)cc1` [Compound 84], the IC50 was in the range of 100 to 1000 nM. With `CN(C)c1ccc(-c2cc3nccnc3c(O[C@@H]3CCOC3)n2)cc1` [Compound 123] the figure was 1 to 100 nM; with `COCCS(=O)(=O)N1CCO[C@H](COc2nc(-c3ccc(N4CCOCC4)cc3)cc3nccnc23)C1` [Compound 66], 100 to 1000 nM; with `CC(C)(O)C1CCN(c2ccc(-c3cc4nccnc4c(OC[C@@H]4CN(S(C)(=O)=O)CCO4)n3)cc2)CC1` [Compound 22], 1 to 100 nM. With `CNC(=O)CS(=O)(=O)N1CCO[C@H](COc2nc(-c3ccc(N(C)C)cc3)cc3nccnc23)C1` [Compound 99] the figure was 100 to 1000 nM; with `CN(C)c1ccc(-c2cc3nccnc3c(OC3CCCOC3)n2)cc1` (stereo not shown) [Compound 127], 1 to 100 nM; with `COC1CCN(c2ccc(-c3cc4nccnc4c(OC[C@@H]4CN(C(C)=O)CCO4)n3)cc2)CC1` [Compound 48], 100 to 1000 nM. With `CNc1ccc(-c2cc3nccnc3c(OC[C@@H]3CN(C(=O)[C@H]4CCCO4)CCO3)n2)cc1` [Compound 51], the half-maximal inhibitory concentration (IC50) was in the range of 100 to 1000 nM. With `CN1CCN(c2ccc(-c3cc4nccnc4c(OC[C@@H]4CN(C(=O)C(F)F)CCO4)n3)cc2)CC1` [Compound 16], the IC50 was 1 to 100 nM. As to `CN(C)c1ccc(-c2cc3nccnc3c(OC[C@@H]3CN(S(=O)(=O)c4cccnc4)CCO3)n2)cc1` [Compound 92], the 50% inhibitory concentration (IC50) was 1 to 100 nM. Under `CN(C)CCS(=O)(=O)N1CCO[C@H](COc2nc(-c3ccc(N4CCOCC4)cc3)cc3nccnc23)C1` [Compound 65] stands 100 to 1000 nM; under `CS(=O)(=O)N1CCO[C@H](COc2nc(-c3ccc(N4CCOCC4)cc3)cc3nccnc23)C1` [Compound 12], 1 to 100 nM; under `CN(C)c1ccc(-c2cc3nccnc3c(OC[C@@H]3CN(C(=O)C4CCCC4)CCO3)n2)cc1` [Compound 98], 100 to 1000 nM.

As to `CCN1CCN(c2ccc(-c3cc4nccnc4c(OC[C@@H]4CN(C(=O)C(F)F)CCO4)n3)cc2)CC1` [Compound 17], the IC50 is 1 to 100 nM. Regarding `CCS(=O)(=O)N1CCC(c2ccc(-c3cc4nccnc4c(OC[C@@H]4CN(C(C)=O)CCO4)n3)cc2)CC1` [Compound 23], the IC50 fell in the range of 100 to 1000 nM. With `CCS(=O)(=O)N1CCN(c2ccc(-c3cc4nccnc4c(OC[C@@H]4CN(C(C)=O)CCO4)n3)cc2)CC1` [Compound 25], the IC50 was 100 to 1000 nM.

For the origin of these results see patent US20150307491A1, “SUBSTITUTED PYRIDOPYRAZINES AS SYK INHIBITORS” (HUTCHISON MEDIPHARMA LIMITED, priority 2012, published 2015).
